Experimental data: the NIST ThermoML archive (doi:10.1021/je2010209)
Numbers after ± are expanded uncertainties. Each block holds one compound with its values, some of them ahead of it.

Experiments:
[1] = 101 kPa, Liquid; for speed of sound: Sing-around technique in a fixed-path interferometer; for mass density: Vibrating tube method
[2] = xn = mol fraction of the nth substance listed; conditions: 101 kPa, Liquid, x1 = 1; for speed of sound: Sing-around technique in a fixed-path interferometer; for mass density: Vibrating tube method

SMILES: COCCOCCO [2-(2-methoxyethoxy)ethanol]
speed of sound ([1]; 288.15 K): 1451 ± 5 m/s | mass density ([1]; 288.15 K): 1024.6 ± 0.89 kg/m3 | speed of sound ([1]; 293.15 K): 1434 ± 5 m/s | mass density ([1]; 293.15 K): 1020.2 ± 0.88 kg/m3 | speed of sound ([1]; 298.15 K): 1416 ± 5 m/s | mass density ([1]; 298.15 K): 1015.79 ± 0.87 kg/m3 | speed of sound ([1]; 303.15 K): 1399 ± 5 m/s | mass density ([1]; 303.15 K): 1011.36 ± 0.86 kg/m3 | speed of sound ([1]; 308.15 K): 1382 ± 5 m/s | mass density ([1]; 308.15 K): 1006.92 ± 0.85 kg/m3 | speed of sound ([1]; 313.15 K): 1366 ± 5 m/s | mass density ([1]; 313.15 K): 1002.47 ± 0.84 kg/m3 | speed of sound ([1]; 318.15 K): 1349 ± 5 m/s | mass density ([1]; 318.15 K): 998.009 ± 0.83 kg/m3

SMILES: COCCOCCOCCO [2-[2-(2-methoxyethoxy)ethoxy]ethanol]
speed of sound ([1]; 288.15 K): 1470 ± 5 m/s | mass density ([1]; 288.15 K): 1050.1 ± 2.1 kg/m3 | speed of sound ([1]; 293.15 K): 1452 ± 5 m/s | mass density ([1]; 293.15 K): 1045.75 ± 2.1 kg/m3 | speed of sound ([1]; 298.15 K): 1436 ± 5 m/s | mass density ([1]; 298.15 K): 1041.32 ± 2.1 kg/m3 | speed of sound ([1]; 303.15 K): 1421 ± 5 m/s | mass density ([1]; 303.15 K): 1036.84 ± 2 kg/m3 | speed of sound ([1]; 308.15 K): 1408 ± 5 m/s | mass density ([1]; 308.15 K): 1032.27 ± 2 kg/m3 | speed of sound ([1]; 313.15 K): 1393 ± 5 m/s | mass density ([1]; 313.15 K): 1027.76 ± 2 kg/m3 | speed of sound ([1]; 318.15 K): 1376 ± 5 m/s | mass density ([1]; 318.15 K): 1023.3 ± 2 kg/m3

Continued, values first:

speed of sound ([1]; 288.15 K): 1589 ± 5 m/s | mass density ([1]; 288.15 K): 1206.51 ± 1.3 kg/m3 | speed of sound ([1]; 293.15 K): 1577 ± 5 m/s | mass density ([1]; 293.15 K): 1202.95 ± 1.3 kg/m3 | speed of sound ([1]; 298.15 K): 1565 ± 5 m/s | mass density ([1]; 298.15 K): 1199.39 ± 1.3 kg/m3 | speed of sound ([1]; 303.15 K): 1554 ± 5 m/s | mass density ([1]; 303.15 K): 1195.82 ± 1.3 kg/m3 | speed of sound ([1]; 308.15 K): 1542 ± 5 m/s | mass density ([1]; 308.15 K): 1192.27 ± 1.3 kg/m3 | speed of sound ([1]; 313.15 K): 1531 ± 5 m/s | mass density ([1]; 313.15 K): 1188.72 ± 1.2 kg/m3 | speed of sound ([1]; 318.15 K): 1520 ± 5 m/s | mass density ([1]; 318.15 K): 1185.17 ± 1.2 kg/m3
SMILES: CCCCn1cc[n+](C)c1.F[B-](F)(F)F [1-butyl-3-methylimidazolium tetrafluoroborate]

speed of sound ([2]; 288.15 K): 1589 ± 5 m/s | mass density ([2]; 288.15 K): 1206.51 ± 1.3 kg/m3 | speed of sound ([2]; 293.15 K): 1577 ± 5 m/s | mass density ([2]; 293.15 K): 1202.95 ± 1.3 kg/m3 | speed of sound ([2]; 298.15 K): 1565 ± 5 m/s | mass density ([2]; 298.15 K): 1199.39 ± 1.3 kg/m3 | speed of sound ([2]; 303.15 K): 1554 ± 5 m/s | mass density ([2]; 303.15 K): 1195.82 ± 1.3 kg/m3 | speed of sound ([2]; 308.15 K): 1542 ± 5 m/s | mass density ([2]; 308.15 K): 1192.27 ± 1.3 kg/m3 | speed of sound ([2]; 313.15 K): 1531 ± 5 m/s | mass density ([2]; 313.15 K): 1188.72 ± 1.2 kg/m3 | speed of sound ([2]; 318.15 K): 1520 ± 5 m/s | mass density ([2]; 318.15 K): 1185.17 ± 1.2 kg/m3
SMILES: CCCCn1cc[n+](C)c1.F[B-](F)(F)F [1-butyl-3-methylimidazolium tetrafluoroborate] + COCCO

speed of sound ([1]; 288.15 K): 1380 ± 5 m/s | mass density ([1]; 288.15 K): 969.794 ± 1.8 kg/m3 | speed of sound ([1]; 293.15 K): 1367 ± 5 m/s | mass density ([1]; 293.15 K): 965.063 ± 1.8 kg/m3 | speed of sound ([1]; 298.15 K): 1351 ± 5 m/s | mass density ([1]; 298.15 K): 960.447 ± 1.8 kg/m3 | speed of sound ([1]; 303.15 K): 1337 ± 5 m/s | mass density ([1]; 303.15 K): 955.825 ± 1.7 kg/m3 | speed of sound ([1]; 308.15 K): 1321 ± 5 m/s | mass density ([1]; 308.15 K): 951.214 ± 1.7 kg/m3 | speed of sound ([1]; 313.15 K): 1304 ± 5 m/s | mass density ([1]; 313.15 K): 946.562 ± 1.7 kg/m3 | speed of sound ([1]; 318.15 K): 1287 ± 5 m/s | mass density ([1]; 318.15 K): 941.864 ± 1.7 kg/m3
SMILES: COCCO [2-methoxyethan-1-ol]
